From patent publication US20180244699A1, “1-HYDROXY-3H-2,1-BENZOXABOROLE DERIVATIVES AND THEIR USE AS MICROBIOCIDES” (Syngenta Participations AG, priority 2015, published 2018)

What was measured:
[1] = test system: Glomerella lagenarium (Colletotrichum lagenarium); test: Glomerella lagenarium (Colletotrichum lagenarium) / liquid culture (anthracnose); type: cell-based; conditions: Colletotrichum orbiculare, growth inhibition photometrically 3-4 days after application, compared to untreated control
Procedure: (§1) 3. Glomerella lagenarium (Colletotrichum lagenarium)/Liquid Culture (Anthracnose) Conidia of the fungus from cryogenic storage are directly mixed into nutrient broth (PDB potato dextrose broth). After placing a (DMSO) solution of test compound into a microtiter plate (96-well format), the nutrient broth containing the fungal spores is added. The test plates are incubated at 24° C. and the inhibition of growth is measured photometrically 3-4 days after application.

Gaeumannomyces graminis = Gaeumannomyces graminis / liquid culture (take-all of cereals); type: cell-based; conditions: growth inhibition photometrically 4-5 days after application, compared to untreated control
In short: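 Mycelial fragments from cryogenic storage in potato dextrose broth added to compound in DMSO, 96-well format. Incubated at 24° C; growth inhibition read photometrically 4-5 days after application.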

[2] = test system: Monographella nivalis (Microdochium nivale); test: Monographella nivalis (Microdochium nivale) / liquid culture (foot rot cereals); type: cell-based; conditions: growth inhibition photometrically 4-5 days after application, compared to untreated control
In short: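 Conidia from cryogenic storage were mixed into potato dextrose broth and added to wells holding test compound in DMSO. Incubation was at 24° C, with growth inhibition measured photometrically 4-5 days after application.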

[3] = test system: Mycosphaerella arachidis (Cercospora arachidicola); test: Mycosphaerella arachidis (Cercospora arachidicola) / liquid culture (early leaf spot); type: cell-based; conditions: growth inhibition photometrically 4-5 days after application, compared to untreated control
Procedure: as §1, with “9. Mycosphaerella arachidis (Cercospora arachidicola)/Liquid” for “3. Glomerella lagenarium (Colletotrichum lagenarium)/Liquid”, “(Early Leaf Spot)” for “(Anthracnose)”, “determined” for “measured”, “4-5” for “3-4”

Phytophthora infestans = test: whole plant or invertebrate; type: in vivo; conditions: in Solanum lycopersicum, foliar, read-out: control of Phytophthora infestans
Pythium ultimum = Pythium ultimum / liquid culture (seedling damping off); type: cell-based; conditions: Globisporangium ultimum, growth inhibition photometrically 2-3 days after application, compared to untreated control
In short: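 Fungal mycelia fragments and oospores from fresh liquid culture mixed into potato dextrose broth and added to DMSO solutions of test compound. Incubated at 24° C.; growth inhibition read photometrically 2-3 days after application.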

[4] = test system: Thanatephorus cucumeris (Rhizoctonia solani); test: Thanatephorus cucumeris (Rhizoctonia solani) / liquid culture (foot rot, damping-off); type: cell-based; conditions: growth inhibition photometrically 3-4 days after application, compared to untreated control
Procedure: 16. Thanatephorus cucumeris (Rhizoctonia solani)/Liquid Culture (Foot Rot, Damping-Off) Mycelia fragments of a newly grown liquid culture of the fungus are directly mixed into nutrient broth (PDB potato dextrose broth). After placing a (DMSO) solution of the test compounds into a microtiter plate (96-well format), the nutrient broth containing the fungal material is added. The test plates are incubated at 24° C. and the inhibition of growth is determined photometrically 3-4 days after application.

Sclerotinia sclerotiorum = Sclerotinia sclerotiorum / liquid culture (cottony rot); type: cell-based; conditions: growth inhibition photometrically 3-4 days after application, compared to untreated control
Procedure: 17. Sclerotinia sclerotiorum/Liquid Culture (Cottony Rot) Mycelia fragments of a newly grown liquid culture of the fungus are directly mixed into nutrient broth (PDB potato dextrose broth). After placing a (DMSO) solution of test compound into a microtiter plate (96-well format) the nutrient broth containing the fungal material is added. The test plates are incubated at 24° C. and the inhibition of growth is determined photometrically 3-4 days after application.

[5] = test system: Mycosphaerella graminicola (Septoria tritici); test: Mycosphaerella graminicola (Septoria tritici) / liquid culture (Septoria blotch); type: cell-based; conditions: Zymoseptoria tritici, growth inhibition photometrically 4-5 days after application, compared to untreated control
Procedure: as §1, with “18. Mycosphaerella graminicola (Septoria tritici)/Liquid” for “3. Glomerella lagenarium (Colletotrichum lagenarium)/Liquid”, “(Septoria Blotch)” for “(Anthracnose)”, “determined” for “measured”, “4-5” for “3-4”

[6] = test system: Puccinia recondite f. sp. tritici; test: Puccinia recondite f. sp. tritici / wheat / leaf disc preventative (brown rust); type: in vivo; conditions: foliar, wheat leaf segments, inoculated 1 day after application, compared to untreated control
Procedure: 13. Puccinia recondite f. Sp. Tritici/Wheat/Leaf Disc Preventative (Brown Rust) Wheat leaf segments cv. Kanzler are placed on agar in multiwell plates (24-well format) and sprayed with the formulated test compound diluted in water. The leaf disks are inoculated with a spore suspension of the fungus 1 day after application. The inoculated leaf segments are incubated at 19° C. and 75% rh under a light regime of 12 h light/12 h darkness in a climate cabinet and the activity of a compound is assessed as percent disease control compared to untreated when an appropriate level of disease damage appears in untreated check leaf segments (7-9 days after application).

[7] = test system: Blumeria graminis f. sp. tritici (Erysiphe graminis f. sp. tritici); test: Blumeria graminis f. sp. tritici / wheat / leaf disc preventative (powdery mildew on wheat); type: in vivo; conditions: 200 ppm, wheat leaf segments, inoculated 1 day after application, compared to untreated control
Procedure: 4. Blumeria Graminis f. Sp. Tritici (Erysiphe graminis f. Sp. Tritici)/Wheat/Leaf Disc Preventative (Powdery Mildew on Wheat)
Wheat leaf segments cv. Kanzler are placed on agar in a multiwell plate (24-well format) and sprayed with the formulated test compound diluted in water. The leaf disks are inoculated by shaking powdery mildew infected plants above the test plates 1 day after application. The inoculated leaf disks are incubated at 20° C. and 60% rh under a light regime of 24 h darkness followed by 12 h light/12 h darkness in a climate chamber and the activity of a compound is assessed as percent disease control compared to untreated when an appropriate level of disease damage appears on untreated check leaf segments (6-8 days after application).

Pyrenophora teres = Pyrenophora teres / barley / leaf disc preventative (net blotch); type: in vivo; conditions: 200 ppm, barley leaf segments, inoculated 2 days after application, compared to untreated control
Procedure: 14. Pyrenophora teres/Barley/Leaf Disc Preventative (Net Blotch) Barley leaf segments cv. Hasso are placed on agar in a multiwell plate (24-well format) and sprayed with the formulated test compound diluted in water. The leaf segments are inoculated with a spore suspension of the fungus 2 days after application. The inoculated leaf segments are incubated at 20° C. and 65% rh under a light regime of 12 h light/12 h darkness in a climate cabinet and the activity of a compound is assessed as disease control compared to untreated when an appropriate level of disease damage appears in untreated check leaf segments (5-7 days after application).

Row | SMILES | inhibition of growth at 20 ppm [1] [%] | inhibition of growth at 20 ppm (Gaeumannomyces graminis) [%] | inhibition of growth at 20 ppm [2] [%] | inhibition of growth at 20 ppm [3] [%] | pest or weed control at 200 ppm (Phytophthora infestans) [%] | inhibition of growth at 20 ppm (Pythium ultimum) [%] | inhibition of growth at 20 ppm [4] [%] | inhibition of growth at 20 ppm (Sclerotinia sclerotiorum) [%] | inhibition of growth at 20 ppm [5] [%] | melting point [°C] | pest or weed control at 200 ppm [6] [%] | control of Blumeria graminis f. sp. tritici [7] | control of Pyrenophora teres (Pyrenophora teres)
1 | COC(=O)c1ccc2c(c1OC)B(O)OC2 [Compound 1, methyl 1-hydroxy-7-methoxy-3H-2,1-benzoxaborole-6-carboxylate] | ≥ 80 | ≥ 80 | ≥ 80 | ≥ 80 | ≥ 80 | ≥ 80 | ≥ 80 | ≥ 80 | ≥ 80 | – | – | – | –
2 | COC(=O)c1ccc2c(c1O)B(O)OC2 [Compound 2, methyl 1,7-dihydroxy-3H-2,1-benzoxaborole-6-carboxylate] | ≥ 80 | ≥ 80 | ≥ 80 | ≥ 80 | ≥ 80 | ≥ 80 | ≥ 80 | ≥ 80 | ≥ 80 | 146 to 148 | – | – | –
3 | COC(=O)c1ccc2c(c1Cl)B(O)OC2 [Compound 3, methyl 7-chloro-1-hydroxy-3H-2,1-benzoxaborole-6-carboxylate] | ≥ 80 | – | ≥ 80 | ≥ 80 | ≥ 80 | ≥ 80 | ≥ 80 | ≥ 80 | ≥ 80 | – | ≥ 80 | – | –
4 | CNC(=O)c1ccc2c(c1OC)B(O)OC2 [Compound 8, 1-hydroxy-7-methoxy-N-methyl-3H-2,1-benzoxaborole-6-carboxamide] | – | – | – | ≥ 80 | – | ≥ 80 | – | – | – | – | ≥ 80 | – | –
5 | CCOC(=O)c1ccc2c(c1Cl)B(O)OC2 [Compound 9, ethyl 7-chloro-1-hydroxy-3H-2,1-benzoxaborole-6-carboxylate] | ≥ 80 | ≥ 80 | ≥ 80 | – | ≥ 80 | ≥ 80 | ≥ 80 | – | ≥ 80 | 132 to 133 | ≥ 80 | – | –
6 | COc1c(C(=O)OCC(F)F)ccc2c1B(O)OC2 [Compound 12, 2,2-difluoroethyl 1-hydroxy-7-methoxy-3H-2,1-benzoxaborole-6-carboxylate] | ≥ 80 | ≥ 80 | ≥ 80 | – | ≥ 80 | ≥ 80 | – | – | ≥ 80 | – | – | – | –
7 | COc1c(C(=O)NC(C)c2ncc(F)cc2F)ccc2c1B(O)OC2 (stereo not drawn) [Compound 20, N-[1-(3,5-difluoro-2-pyridyl)ethyl]-1-hydroxy-7-methoxy-3H-2,1-benzoxaborole-6-carboxamide] | – | – | – | – | – | – | – | – | – | – | – | at least 80% | –
8 | CCc1ccc(NC(=O)c2ccc3c(c2OC)B(O)OC3)cc1 [Compound 29, N-(4-ethylphenyl)-1-hydroxy-7-methoxy-3H-2,1-benzoxaborole-6-carboxamide] | ≥ 80 | – | ≥ 80 | – | – | ≥ 80 | – | – | ≥ 80 | – | – | – | at least 80%
9 | COc1c(C(=O)OCn2cccn2)ccc2c1B(O)OC2 [Compound 86, pyrazol-1-ylmethyl 1-hydroxy-7-methoxy-3H-2,1-benzoxaborole-6-carboxylate] | ≥ 80 | ≥ 80 | ≥ 80 | ≥ 80 | ≥ 80 | ≥ 80 | ≥ 80 | ≥ 80 | ≥ 80 | – | – | – | –
10 | COc1c(C(=O)OCn2nc(C)cc2C)ccc2c1B(O)OC2 [Compound 103, (3,5-dimethylpyrazol-1-yl)methyl 1-hydroxy-7-methoxy-3H-2,1-benzoxaborole-6-carboxylate] | – | ≥ 80 | – | – | ≥ 80 | ≥ 80 | – | – | – | – | – | – | –
11 | COc1c(C(=O)OCCOC(C)C)ccc2c1B(O)OC2 [Compound 109, 2-isopropoxyethyl 1-hydroxy-7-methoxy-3H-2,1-benzoxaborole-6-carboxylate] | – | ≥ 80 | ≥ 80 | – | ≥ 80 | ≥ 80 | – | – | – | – | – | – | –
12 | COc1c(C(=O)O)ccc2c1B(O)OC2 [Compound 131, 1-hydroxy-7-methoxy-3H-2,1-benzoxaborole-6-carboxylic acid] | – | – | – | – | – | – | – | – | – | 181 to 182.4 | – | – | –
